Measurements from patent publication US20260306460A1, “COMPOSITION FOR REMOVING AND INHIBITING SENESCENT CELLS, AND USES THEREOF” (LIFECEUTIX CO., LTD., priority 2023, published 2026).

Columns and labels:
[1] = system: naturally aged C57BL6J mice; experiment: p16 mRNA in organs of naturally aged mice, Example 21-2, Table 18; type: in vivo, mouse; conditions: 22-month-old naturally aged mice, untreated aged = 100%
Experimental: 22-month-old female C57BL6J mice (KRIBB Laboratory Animal Resource Center) were acclimated to the experimental environment for one week, after which the aged mice were randomly assigned to experimental and control groups. Eight-week-old, non-aged mice served as controls. LX-403 was mixed in a 10% ethanol solution of PEG400 and administered orally at a concentration of 25 mg/kg daily for 21 days, or administered to the skin, joints, or eyes at a concentration of 1 μM. LX-1801 was mixed in distilled water with 4% DMSO, 30% PEG300, and 5% Tween80 and administered to the skin, joints, or eyes at a concentration of 0.4 μM daily for 21 days. LX-2001 was mixed in PBS and administered to the skin, joints, or eyes at a concentration of […] daily for 21 days. LX-2002 was mixed in distilled water with 4% DMSO, 30% PEG300, and 5% Tween80 and administered to the skin, joints, or eyes at a concentration of 2 μM daily for 21 days. […] LX-2005 was mixed in distilled water with 4% DMSO, 30% PEG300, and 5% Tween80 and administered to the skin, joints, or eyes at a concentration of 90 μM daily for 21 days. LX-2007 was mixed in distilled water with 4% DMSO, 30% PEG300, and 5% Tween80 and administered to the skin, joints, or eyes at a concentration of 90 μM daily for 21 days. […] LX-3002 was mixed in distilled water with 4% DMSO, 30% PEG300, and 5% Tween80 and administered orally at a concentration of 10 mg/kg daily for 21 days. […] LX-5411 was mixed in 5% PBS and administered orally at a concentration of 10 mg/kg daily for 21 days or administered to the skin, joints, or eyes at a concentration of 3 μM. LX-5701 was mixed in PBS and administered orally at a concentration of 360 mg/kg daily for 21 days. LX-6807 was mixed in saline and administered intraperitoneally at a concentration of 1 mg/kg daily for 21 days. LX-2101 or LX-2102 was mixed in PBS solution with 5% DMSO and administered intraperitoneally at a concentration of 20 mg/kg or 10 mg/kg, respectively, daily for 21 days. The control group received only the solution in the same volume. After the end of drug administration, the methods described in each example below were performed.
Mice were sacrificed, and RNA was extracted from each organ tissue using the same method as in Example 7-2 of WO2023-085787 A1. qRT-PCR was performed with the synthesized cDNA. […] The amount of p16 mRNA after aging was calculated as 100% and compared with the amount of p16 mRNA after test compound treatment.

[2] = system: doxorubicin-induced aged C57BL6J mice; experiment: Liver damage (AST, ALT) in doxorubicin-aged mice, Example 22-8, Table 37; type: in vivo, mouse; conditions: serum, amount after aging calculated as 100%
Experimental: Eight-week-old male C57BL6J mice (KRIBB Laboratory Animal Resource Center) were acclimated to the experimental environment for one week. […] The aging-induced mice were randomly assigned to experimental and control groups. […] The control group received only the solution in the same volume.
The amounts were measured spectrophotometrically using a kit (Sigma) according to the manufacturer's instructions. […] The amount of each factor after aging was calculated as 100% and compared with the amount of each factor after treatment with the test compound.

[3] = system: obesity-induced aged C57BL6J mice; experiment: Fatty liver (Oil Red O, AST, ALT) in obesity-aged mice, Example 23-5, Table 45; type: in vivo, mouse; conditions: daily for 21 days, untreated 100%
Experimental: After acclimation to the experimental environment for one week, the mice were randomly assigned to experimental and control groups. […] The control group received only the solution in the same volume. After the end of drug administration, the methods described in each example below were performed.

[4] = system: bleomycin-induced pulmonary fibrosis C57BL6J mice; experiment: Bleomycin pulmonary fibrosis in mice (p16, IL6, Col1a1 mRNA, alveoli size), Example 24-1, Table 47; type: in vivo, mouse
Experimental: Eight-week-old male C57BL6J mice (KRIBB Laboratory Animal Resource Center) were acclimated to the experimental environment for one week. They were then administered the anticancer drug bleomyxin via intratracheal inhalation at a concentration of 2.5 mg/kg, inducing aging for more than 10 days. The aging-induced mice were randomly assigned to experimental and control groups. […] LX-3002 was mixed in distilled water with 4% DMSO, 30% PEG300, 5% tween80 and administered orally at a concentration of 10 mg/kg daily for 21 days. LX-5701 was mixed in PBS and administered orally at a concentration of 360 mg/kg daily for 21 days. LX-6807 was mixed in saline and administered intraperitoneally at a concentration of 1 mg/kg daily for 21 days. The control group received only the solution in the same volume. After the end of drug administration, mice were sacrificed in the same manner as in Example 7-2 of WO2023-085787 A1, RNA was extracted from lung tissue, and qRT-PCR (quantitative real-time PCR) was performed and analyzed using the synthesized cDNA. […] The amount of mRNA after aging was calculated as 100%, and the results after treatment with the test compound were compared. Furthermore, paraffin sections were stained with hematoxylin/eosin (H/E), and the size of alveoli was measured under an optical microscope to assess the degree of lung function impairment due to pulmonary fibrosis.

SHR/Izm rats = experiment: Geriatric hypertension in SHR/Izm rats (p16 mRNA, blood pressure), Example 30, Table 54; type: in vivo, rat
Experimental: Ten-week-old male SHR/Izm rats (SLC), a model of essential hypertension, were acclimated to the experimental environment for one week. […] The control group received only the solution in the same volume. After drug administration, the blood pressure of the experimental animals was measured, and RNA was extracted from the thoracic aorta in the same manner as in Example 7-2 of WO2023-085787 A1. The synthesized cDNA was used for qRT-PCR. Blood pressure measurements were performed three times using a blood pressure monitor (IITC) after the animals were allowed to rest for approximately 10 minutes in a measuring holder with a cuff attached to the caudal vein. […] The mRNA levels after aging were calculated as 100% and compared with the mRNA levels of p16 after treatment with the test compound.

[5] = lung, daily for 21 days, untreated 100%

O=C1C2CCN(CC2)C1CNC(=O)C(F)(F)F (stereo not shown) [LX-5701]
p16 mRNA (%), Brain ([1]; Brain): 71%
p16 mRNA (%), Eye ([1]; Eye): 63%
p16 mRNA (%), Femur ([1]; Femur): 70%
p16 mRNA (%), Heart ([1]; Heart): 72%
p16 mRNA (%), Kidney ([1]; Kidney): 42%
p16 mRNA (%), Knee joint ([1]; Knee joint): 66%
p16 mRNA (%), Liver ([1]; Liver): 34%
p16 mRNA (%), Lung ([1]; Lung): 58%
p16 mRNA (%), Muscle ([1]; Muscle): 64%
p16 mRNA (%), Skin ([1]; Skin): 75%
p16 mRNA (%), eWAT ([1]; eWAT): 51%
ALT [2]: 64 (±15.7) %
AST [2]: 72 (±13.5) %
ALT ([3]; serum): 64 (±7.9) %
AST ([3]; serum): 69 (±8.8) %
Oil Red O ([3]; staining area, liver): 55 (±17.2) %
Airspace enlargement ([4]; average size of alveoli, untreated 39.8 (±0.4)): 30.1 (±2.7) μm
Col1a1 mRNA [4, 5]: 52 (±13.9) %
IL6 mRNA [4, 5]: 59 (±13.2) %
p16 mRNA [4, 5]: 65 (±7.1) %
Blood pressure (SHR/Izm rats; tail cuff, untreated 195 (±13.3)): 159.8 (±15.5) mmHg
p16 mRNA (SHR/Izm rats; thoracic aorta, untreated 100%): 73 (±5.2) %
